Assay [1] deals with HCT116. Description: Cytotoxicity assay (cell counting). The assay is classed as cell-based, Human. How it is done: (§1) Cells were plated in 24-well plates. After cells were allowed to recover for 24 hours, NVX-412 was added in fresh growth medium. The maximal DMSO concentration reached in all experiments was below 0.01%. Respective control experiments at the highest DMSO concentration were performed in order to rule out DMSO-induced effects. After 72 hours incubation the proportion of viable cells was determined by cell counting with a Z1 Coulter Particle Counter (Beckman Coulter, Vienna, AUT), a ViCell XR (Beckman Coulter, Vienna, AUT) or a CASY® Cell Counter (Schärfe, Reutlingen, Germany). Cytotoxicity was expressed as IC50 values that were derived from the corresponding dose–response curves.

The test system of assay [2] is HT-29. Description: Cytotoxicity assay (cell counting). The assay is classed as cell-based, Human. How it is done:
as §1

In assay [3] the test system is Normal human endothelial cells (HUVEC). Description: Cytotoxicity assay, normal cells. The assay is classed as cell-based. The procedure:
as §1

The test system of assay [4] is human white preadipocytes (hWP). Description: Cytotoxicity assay, normal cells. The class given is cell-based. How it is done: as §1
Assay [5] relates to HT-29 cells. The assay is described as follows: Clonogenic assay. The class given is cell-based, human. Particulars: HT-29, 14 days incubation. How it is done: (§2) For clonogenic assays, HT-29 and HepG2 cells were plated in 60 mm dishes at a density of 1000 cells per dish. After 24 hours NVX-412 was added at the indicated concentrations. After cultivation for 12–14 days (when assessable colonies were visible), colonies were fixed in 70% ethanol, stained with 0.5% Crystal Violet and counted manually.

In assay [6] the test system is HepG2 cells. Description: Clonogenic assay. The class given is cell-based, human. Particulars: HepG2, 12 days incubation. How it is done:
as §2

The test system of assay [7] is HT-29 cells. Description: Proliferation kinetics. The class given is cell-based, human. How it is done: HT-29 cells were plated (2×10^4 cells/well) in 24-well plates. After a recovery period of 24 hours, NVX-412 was added in fresh growth medium to final concentrations of 0, 300 and 1000 nM, respectively. After 24, 48 and 72 hours cell numbers were determined with a Z1 Coulter Particle Counter.

The subject of assay [8] is HCT116 p53+/+ or p53−/− cells. Description: Determination of p53 status dependency. Particulars: HCT116 p53+/+ vs p53−/−, 72 hours, viable cell numbers. The class given is cell-based, human. How it is done:
(§3) The isogenic colon carcinoma cells lines HCT116 p53+/+ or p53−/− and RKO p53+/+ or p53−/− were cultured in 12-well plates. After a recovery period of 24 hours, NVX-412 or Nutlin-3 was added in fresh growth medium at the indicated concentrations. […] After 24 or 72 hours cell numbers were determined with a Beckman Coulter ViCell XR.

In assay [9] the test system is RKO p53+/+ or p53−/− cells. Description: Determination of p53 status dependency. The assay is classed as cell-based, human. To be noted: RKO p53+/+ vs p53−/−, 72 hours, viable cell numbers. How it is done:
as §3

Assay [10] deals with HCT116 cells. Description: Flow cytometric cell cycle analysis. The class given is cell-based, human. To be noted: HCT116, 24 hours, IC50 concentration, 0.5 and 1 µM. The procedure: (§4) HT-29, HeLa and HCT116 cells were plated in 6-well plates. […] CPT was used at 50 nM and 1 µM. To analyze the cell cycle distribution, cells were collected after 24 hours of incubation and washed with PBS. Cells were fixed in 70% ethanol for at least 2 hours. For analysis, cells were transferred into PBS, incubated with RNAse A (0.04 µg/ml final concentration) for 30 minutes at 37°C, treated with […] propidium iodide for 30 min at 4°C and then analyzed by flow cytometry using BD FACScan (Becton, Dickinson and Company, Franklin Lakes, NJ, USA). The resulting DNA histograms were quantified using ModFit LT (Verity Software House, Topsham, ME, USA).

The subject of assay [11] is HT-29 cells. Description: Flow cytometric cell cycle analysis. The class given is cell-based, human. To be noted: HT-29, 24 hours, IC50 concentration, 0.5 and 1 µM. The procedure: as §4
(In general: A flow cytometer gives signals particle by particle.)

Assay [12] has as its system HeLa cells. Description: Flow cytometric cell cycle analysis. The class given is cell-based, human. To be noted: 24 hours, IC50 concentration, 0.5 and 1 µM. How it is done: as §4
Assay [13] concerns γH2AX (Ser139). The assay is described as follows: Immunofluorescence staining and quantification of γH2AX in HeLa cells. The class given is cell-based, human. The procedure: HCT116 and HeLa cells were seeded on glass cover slips in 6-well plates. 24 hours after plating, HCT116 cells were incubated with 0.15, 0.5 and 1 µM NVX-412 and 1 µM CPT for 24 hours for staining of p-p53. For investigating γH2AX, HeLa cells were incubated with 0.21, 0.5 and 1 µM NVX-412 and 1 µM CPT for 3 or 24 hours. Additionally, cells were allowed to recover for 24 hours in normal growth medium after 24 hours of incubation with NVX-412 or CPT (wash-out experiment). After the respective treatments, cells were washed and fixed with 4% methanol-free formaldehyde (Polysciences Inc. Warrington, PA, USA) for 15 minutes at room temperature and then permeabilized with 0.2% Triton X-100/PBS for 2 minutes at room temperature. After blocking with goat serum (5%) in 1% BSA/0.3% Triton X-100/PBS, the respective primary antibody was added and cells were incubated at 4°C overnight. Antibodies used were: mouse p-p53 (Ser15) (Cell Signaling Technology, Danvers, MA, USA) at 1∶100 dilution and mouse p-H2AX (Ser139) (Millipore, Billerica, MA, USA) at 1∶1000 dilution in 1% BSA/PBS, respectively. Cells were then washed 3 times for 10 minutes with 0.25% BSA/0.1% Triton X-100/PBS and incubated with the Alexa Fluor 488 conjugated secondary anti-mouse antibody (1∶1000 in 0.25% BSA/0.1% Triton X-100/PBS) for 1 hour at room temperature in the dark. Cells were washed 3 times for 10 minutes with 0.05% Tween-20/PBS containing Hoechst 33342 (Sigma Aldrich, Vienna, AUT) and mounted with mounting medium (Fluoprep, bioMérieux, Marcy l'Etoile, FRA). Fluorescence was immediately recorded on a Zeiss LSM700 laser scanning microscope.
The common procedure for assessing γH2AX induction is to count γH2AX foci. Since with NVX-412 and the positive control CPT γH2AX activation was that strong, no distinguishable and countable foci were seen. Therefore, the average γH2AX fluorescence intensity per nucleus was determined. To this end, γH2AX intensities within a certain field were measured using Quantity One –4.6.9 (Basic freeware version, Bio-Rad Laboratories, Hercules, CA, USA) and were divided by the number of nuclei in this field.

The test system of assay [14] is all cell lines tested. The assay is described as follows: β-galactosidase staining (cellular senescence). The assay is classed as cell-based. To be noted: data not shown.

pIC50: −log10 of the molar value.

Broadly, the pIC50 is −log10 of the IC50, conventionally taken in molar units. A high value points to a small IC50. In the case of `O=C(NNc1nc2cc(F)ccc2n2cccc12)c1cnccn1` [NVX-412, Pyrazine-2-carboxylic acid N’- (7-fluoro-pyrrolo[1,2-α]quinoxalin-4-yl)-hydrazide-oxalic acid co-crystal], the “IC50 lower compared to the parental compound NVX-144” value in assay [1] (HCT116 colon carcinoma cell line) and in [2] (HT-29 colon carcinoma cell line) was 3 to 4 fold each time. The negative logarithm of the IC50 (pIC50) was 6.82 in assay [1] (Homo sapiens, HCT-116, HCT116, colon carcinoma, 72 hours incubation); 6.52 in assay [2] (Homo sapiens, HT-29, colon adenocarcinoma, 72 hours incubation); 5.70 in assay [3]; 6.00 in [4]. Further, the Clonogenic survival entry in assay [5] is “reduced the ability of HepG2 and HT-29 cells to form colonies in a dose-dependent manner”; in assay [6] it was “reduced the ability of HepG2 and HT-29 cells to form colonies in a dose-dependent manner”. Also, in assay [7] (HT-29, 300 nM (IC50), after 2 days, compared to untreated control), the Proliferation of cells entry is given as “significantly decreased”. Moreover, in [7] (HT-29, 1 µM, 3 days of treatment), the Cell numbers result is “cell numbers started to decline below the numbers of cells seeded”. For the same compound, the “p53 status dependency of sensitivity” value in assay [8] and in assay [9] was “the p53 status does not influence the sensitivity to NVX-412” in each case. Also, the Cell cycle distribution result in [10], in assay [11] and in [12] was “dose-dependent increase in the fraction of S-phase cells” each time. Besides, the γH2AX induction entry in [13] (3 hours) is reported as “Only a slight induction of γH2AX”. In addition, the “γH2AX levels after recovery (wash-out)” value in [13] (24 hours treatment then 24 hours without drug) is on record as “decreased to nearly basal levels”. In [13] (24 hours, 0.21, 0.5 and 1 µM), the γH2AX levels entry was “elevated after a 24 hour treatment in a dose-dependent manner”. Besides, the “γH2AX staining increase (average fluorescence intensity per nucleus)” value in [13] (24 hours, highest concentration tested, p-value <0.0001) is listed as “up to 15 fold”. Also, the “β-galactosidase staining (senescence)” value in [14] was “negative in all cell lines tested”.

Source of the values: PMC3441706 (PLoS ONE, 2012).
